Test results as given in patent US7253286B2, “Nitrogen-containing aromatic derivatives” (Eisai Co., Ltd, priority 2000, dated 2007).
pIC50: −log10 of the molar value. Counter-ions that a name gives are not always drawn.

Legend:
[1] = system: Human Umbilical Vein Endothelial Cells (HUVECs); assay: Inhibition against sandwich tube formation by vascular endothelial cells in response to stimulation by VEGF; type: cell-based; conditions: HUVEC in collagen gel sandwich, stimulation by VEGF (25 ng/ml VEGF and 10 ng/ml EGF), 4th day, total tube length, read-out: IC50 (concentration required for 50% inhibition of tube formation)
Method: Inhibition Against Sandwich Tube Formation by Vascular Endothelial Cells in Response to Stimulation by Angiogenic Factor
Human Umbilical Vein Endothelial Cells (HUVECS) were isolated by the same method as in Pharmacological Test Example 1, and were cultured in a 5% CO2 incubator (37° C.) using EGM-2 medium (purchased from Clonetics Corp.) until the cells reached confluency.
An ice-cooled mixture of collagen: 5× RPMI 1640: reconstitution buffer (all purchased from Nitta Gelatin, Inc.) at 7:2:1 was dispensed at 0.4 ml into each well of a 24-well plate, and then stationed for 40 minutes in a 5% CO2 incubator (37° C.) for gelling. The HUVECs were recovered using trypsin-EDTA and then suspended in human endothelial serum free medium (SFM, purchased from GIBCO BRL) containing added angiogenic factors [20 ng/ml FGF2 (purchased from GIBCO BRL) and 10 ng/ml EGF (purchased from GIBCO BRL), or 25 ng/ml VEGF (purchased from Wako Pure Chemical Industries Co., Ltd.) and 10 ng/ml EGF, or 30 ng/ml HGF (purchased from R&D Co.) and 10 ng/ml EGF], and the cell suspension was added at 0.4 ml to each well (with the cell counts differing slightly according to the HUVEC lot), and cultured overnight in a 5% CO2 incubator (37° C.). On the following day, the medium on the upper layer was aspirated off, and then 0.4 ml of an ice-cooled mixture of collagen: 5× RPMI 1640: reconstitution buffer (all purchased from Nitta Gelatin, Inc.) at 7:2:1 was superposed into each well prior to stationing for 4 hours in a 5% CO2 incubator (37° C.) for gelling. After adding 1.5 ml of an SFM solution containing each of the aforementioned angiogenic factors and a diluted test substance onto the upper layer, culturing was performed in a 5% CO2 incubator (37° C.). Upon aspirating off the culture supernatant in each well on the 4th day after addition of the test substance, 0.4 ml of a 3.3 mg/ml MTT solution dissolved in PBS (purchased from Sigma Corp.) was added to each well and culturing was performed for approximately 2 hours in a 5% CO2 incubator (37° C.). The tubes formed in the collagen gel of each well were stained by the MTT, the tube images were loaded into a computer (Macintosh), and the total length of the tubes was determined by image analysis software “MacScope” (purchased from Mitani Corp.). The ratio of the total length of the tubes formed in the well containing the test substance with respect to the total length of the tubes formed in the well containing no test substance was expressed as a percentage, and the concentration of each test substance required for 50% inhibition of tube formation (IC50) was determined from the ratio value.

[2] = system: Human Umbilical Vein Endothelial Cells (HUVECs); assay: Inhibition against invasive tube formation by vascular endothelial cells in response to stimulation by angiogenic factor mixture; type: cell-based; design: key: the number of tubes formed in the absence of the test substance was designated as +++; scored on the 5-level scale of +++, ++, +, +/−, −; scored on the 5-level scale of +++, ++, +, +/−, −; scored on the 5-level scale of +++, ++, +, +/−, −; − was assigned if absolutely no tubes formed; conditions: HUVEC on fibrin gel, EGF/FGF2/VEGF/HGF/TNF-α mixture, 6th day, MTT staining; for number of tubes formed in the fibrin gel (score) at 0.01 μM: test substance 0.01 μM; for number of tubes formed in the fibrin gel (score) at 0.1 μM: test substance 0.1 μM; for number of tubes formed in the fibrin gel (score) at 1.0 μM: test substance 1.0 μM
Method: Inhibition Against Invasive Tube Formation by Vascular Endothelial Cells in Response to Stimulation by Angiogenic Factor Mixture
Human Umbilical Vein Endothelial Cells (HUVECs) were isolated according to a reported method (Shinseikagaku Jikken Koza [New Biochemistry Experiment Lectures], “Saibo Baiyo Gijutsu” [Cell Culturing Techniques], p.197–202), and were cultured in a 5% CO2 incubator (37° C.) using EGM-2 medium (purchased from Clonetics Corp.) until the cells reached confluency. After adding 0.4 ml of bovine fibrinogen (purchased from Sigma Co.) to the inner well of a Transwell culturing plate (purchased from Coster Inc.), it was hardened with 0.7 units/ml of thrombin (purchased from Sigma Co.). The HUVECs were recovered using trypsin-EDTA and then suspended in human endothelial serum free medium basal growth medium (hereinafter abbreviated as SFM, purchased from GIBCO BRL), and 0.4 ml of the cell suspension (1.4×10^5 cells) was seeded onto the hardened fibrin gel and cultured for approximately 4 hours in a 5% CO2 incubator (37° C.). After 4 hours, there was added to the outer chamber of the Transwell 1.5 ml of an SFM solution containing a mixture of angiogenic factors {10 ng/ml EGF (purchased from GIBCO BRL), 30 ng/ml FGF2 (purchased from GIBCO BRL), 75 ng/ml VEGF (purchased from Wako Pure Chemical Industries Co., Ltd.), 50 ng/ml HGF (purchased from R&D Co.) and 7.5 ng/ml TNF-α (purchased from Genzyme Corp.) [The concentrations of the angiogenic factors differed slightly according to the HUVEC lot.]} and a diluted test substance, and culturing was carried out in a 5% CO2 incubator (37° C.). On the 2nd and 4th days after adding the test substance, the medium was exchanged with 1.5 ml of freshly prepared SFM solution containing the angiogenic factor mixture and test substance. Upon aspirating off the culture supernatant in the inner well on the 6th day after the initial addition of the test substance, 0.4 ml of a 3.3 mg/ml MTT solution dissolved in PBS (purchased from Sigma Corp.) was added and culturing was performed for approximately 1 hour in a 5% CO2 incubator (37° C.). The number of tubes formed in the fibrin gel stained with MTT was scored based on microscope observation. Specifically, the number of tubes formed in the absence of the test substance was designated as +++, while − was assigned if absolutely no tubes formed. The number of tubes formed in the presence of the test substance was scored on the 5-level scale of +++, ++, +, +/−, − to evaluate the strength of inhibition of the test substance.

Row | Compound | pIC50 [1] | number of tubes formed in the fibrin gel (score) at 0.01 μM [2] | number of tubes formed in the fibrin gel (score) at 0.1 μM [2] | number of tubes formed in the fibrin gel (score) at 1.0 μM [2]
1 | CCN1CCN(CCCOc2cc3nccc(Oc4ccc(NC(=O)Nc5ccc(OC)cc5)cc4)c3cc2C#N)CC1 [Example 53, N-(4-(6-Cyano-7-(3-(1-(4-ethyl)piperazino)propoxy)-4-quinolyl)oxyphenyl)-N′-(4-methoxyphenyl)urea] | 8.00 | +++ | +/− | −
2 | COc1ccc(NC(=O)Nc2ccc(Oc3ccnc4cc(OCCOCCO)c(C#N)cc34)cc2)cc1 [Example 72, N-(4-(6-Cyano-7-(2-(2-hydroxyethoxy)ethoxy)-4-quinolyl)oxyphenyl)-N′-(4-methoxyphenyl)urea] | 7.66 | +++ | − | −
3 | CS(=O)(=O)c1cccc(NC(=O)Nc2ccc(Oc3ccnc4cc(OCCCN5CCOCC5)c(C#N)cc34)cc2)c1 [Example 74, N-(4-(6-Cyano-7-(3-(4-morpholino)propoxy)-4-quinolyl)oxyphenyl)-N′-(3-(methylsulfonyl)phenyl)urea] | 8.23 | ++ | − | −
4 | CCN(CC)CCCOc1cc2nccc(Oc3ccc(NC(=O)Nc4ccccc4)cc3)c2cc1C#N [Example 75, N-(4-(6-Cyano-7-(3-(diethylamino)propoxy)-4-quinolyloxy)phenyl)-N′-phenylurea] | 8.85 | +++ | +/− | −
5 | O=C(Nc1ccc(Oc2ncnc3[nH]c(-c4ccccc4)cc23)cc1)Nc1cccc(F)c1 [Example 172, 1-(3-Fluorophenyl)-3-[4-(6-phenyl-7H-pyrrolo[2,3-d]pyrimidin-4-yloxy)phenyl]urea] |  | + | +/− | +/−
6 | O=C(Nc1cc(Oc2ccc3c(ccn3C(=O)NC3CC3)c2)ccn1)C1CC1 [Example 212, N1-Cyclopropyl-5-({2-[(cyclopropylcarbonyl)amino]-4-pyridyl}oxy)-1H-1-indolecarboxamide] |  | +/− | − | −
7 | COc1cc2nccc(Sc3ccc(NC(=O)Nc4ccc(F)cc4)s3)c2cc1C(N)=O [Example 245, 4-(5-(3-(4-Fluorophenyl)ureido)thiophen-2-ylsulfanyl)-7-methoxyquinoline-6-carboxamide] |  | +/− | − | −
8 | N#Cc1cc2c(Oc3ccc(NC(=O)Nc4ccc(F)cc4)c(F)c3)ccnc2cc1OCC(O)CN1CCCC1 (stereo not drawn) [Example 492, N-{4-[6-Cyano-7-(2-hydroxy-3-(pyrrolidin-1-yl)propoxy)quinolin-4-yloxy]-2-fluorophenyl}-N′-(4-fluorophenyl)urea] | 8.14 |  |  | 
9 | CCN(CC)CC(O)COc1cc2nccc(Oc3ccc(NC(=O)Nc4ccc(F)cc4)c(F)c3)c2cc1C#N (stereo not drawn) [Example 493, N-{4-[6-Cyano-7-(3-diethylamino-2-hydroxypropoxy)quinolin-4-yloxy]-2-fluorophenyl}-N′-(4-fluorophenyl)urea] | 8.05 |  |  | 
10 | N#Cc1cc2c(Oc3ccc(NC(=O)Nc4ccc(F)cc4)c(F)c3)ccnc2cc1OCC(O)CN1CCOCC1 (stereo not drawn) [Example 494, N-{4-[6-Cyano-7-(2-hydroxy-(3-morpholin-4-yl)propoxy)quinolin-4-yloxy]-2-fluorophenyl}-N′-(4-fluorophenyl)urea] | 8.03 |  |  | 
11 | N#Cc1cc2c(Oc3ccc(NC(=O)Nc4ccc(F)cc4)c(F)c3)ccnc2cc1OC[C@H](O)CN1CCCCC1 [Example 497, N-(4-{6-Cyano-7-[(2R)-2-hydroxy-3-(piperidin-1-yl)propoxy]quinolin-4-yloxy}-2-fluorophenyl)-N′-(4-fluorophenyl)urea] | 8.34 |  |  | 
12 | N#Cc1cc2c(Oc3ccc(NC(=O)Nc4nccs4)c(F)c3)ccnc2cc1OCC1CCNCC1 [Example 503, N-{4-[6-Cyano-7-(piperidin-4-ylmethoxy)quinolin-4-yloxy]-2-fluorophenyl}-N′-(2-thiazolyl)urea] | 8.19 |  |  | 
13 | CN1CCC(COc2cc3nccc(Oc4ccc(NC(=O)Nc5nccs5)c(F)c4)c3cc2C#N)CC1 [Example 504, N-{4-[6-Cyano-7-(1-methylpiperidin-4-ylmethoxy)quinolin-4-yloxy]-2-fluorophenyl}-N′-(2-thiazolyl)urea] | 8.34 |  |  | 
14 | CN1CCCC(COc2cc3nccc(Oc4ccc(NC(=O)Nc5nccs5)c(F)c4)c3cc2C#N)C1 (stereo not drawn) [Example 505, N-{4-[6-Cyano-7-(1-methylpiperidin-3-ylmethoxy)quinolin-4-yloxy]-2-fluorophenyl}-N′-(2-thiazolyl)urea] | 8.05 |  |  | 
15 | CCNC(=O)n1ccc2cc(Oc3ccnc4cc(OC)c(C(=O)NCCF)cc34)ccc21 [Example 518] | 8.89 |  |  | 
16 | CCNC(=O)n1ccc2cc(Oc3ccnc4cc(OC)c(C(=O)NOC)cc34)ccc21 [Example 520, 6-Methoxycarbamoyl-7-methoxy-4-((1-ethylcarbamoyl)indol-5-yloxy)quinoline] | 8.82 |  |  | 
17 | CONC(=O)c1cc2c(Oc3ccc4c(ccn4C(=O)NC4CC4)c3)ccnc2cc1OC [Example 521, 6-Methoxycarbamoyl-7-methoxy-4-((1-cyclopropylcarbamoyl)indol-5-yloxy)quinoline] | 9.30 |  |  | 
18 | COc1cc(Nc2cc(Oc3ccc(NC(=O)Nc4ccccc4)cc3)ncn2)cc(OC)c1OC [Example 578, N-Phenyl-N′-(4-(6-(3,4,5-trimethoxyphenylamino)pyrimidin-4-yloxy)phenyl)urea hydrochloride] | 7.89 |  |  | 
